Reference: patent publication US12421253B2 (Mirati Therapeutics, Inc., priority 2020, dated 2025)

Experiments:
[1] = molecular target: KRas^G12C (Homo sapiens, UniProt P01116, G12C); assay: biochemical
[2] = molecular target: T1, KRas^G12S (Homo sapiens, UniProt P01116, G12S); assay: KRas binding assay (TR-FRET displacement of Cy5 labelled tracer)
T1 construct: […]; biotin (biotinylated); purchased Accelegan Inc

[3] = molecular target: T2, KRas^G12D (Homo sapiens, UniProt P01116, G12D); assay: as above
T2 construct: […]; biotin (biotinylated); purchased Accelegan Inc

[4] = molecular target: T3, KRas^G12R (Homo sapiens, UniProt P01116, G12R); assay: as above
T3 construct: […]; biotin (biotinylated); purchased Accelegan Inc

[5] = molecular target: KRas^G13D (Homo sapiens, UniProt P01116, G13D); assay: biochemical
[6] = molecular target: KRas^Q61H (Homo sapiens, UniProt P01116, Q61H); assay: biochemical
[7] = molecular target: T4, KRas^WT (Homo sapiens, UniProt P01116); assay: KRas binding assay (TR-FRET displacement of Cy5 labelled tracer)
T4 construct: […]; biotin (biotinylated); purchased Accelegan Inc

[8] = molecular target: T5, KRas^G12V (Homo sapiens, UniProt P01116, G12V); assay: as above
T5 construct: […]; biotin (biotinylated); purchased Accelegan Inc

[9] = molecular target: T6, KRas^G12A (Homo sapiens, UniProt P01116, G12A); assay: as above
T6 construct: […]; biotin (biotinylated); purchased Accelegan Inc
T6 sequence (P01116 1-169 isoform P01116-2 G12A): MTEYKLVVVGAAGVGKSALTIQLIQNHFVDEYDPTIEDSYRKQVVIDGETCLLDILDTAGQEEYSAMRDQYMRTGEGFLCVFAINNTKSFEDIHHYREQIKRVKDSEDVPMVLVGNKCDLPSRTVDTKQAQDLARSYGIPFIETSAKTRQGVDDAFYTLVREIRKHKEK

KRas^Q61H, sequence (P01116 1-169 isoform P01116-2 Q61H): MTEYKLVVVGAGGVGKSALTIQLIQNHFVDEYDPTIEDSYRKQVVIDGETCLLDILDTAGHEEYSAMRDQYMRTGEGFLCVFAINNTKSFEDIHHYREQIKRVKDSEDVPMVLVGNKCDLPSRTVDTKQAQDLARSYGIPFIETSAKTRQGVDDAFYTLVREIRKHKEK
T1 sequence (P01116 1-169 isoform P01116-2 G12S): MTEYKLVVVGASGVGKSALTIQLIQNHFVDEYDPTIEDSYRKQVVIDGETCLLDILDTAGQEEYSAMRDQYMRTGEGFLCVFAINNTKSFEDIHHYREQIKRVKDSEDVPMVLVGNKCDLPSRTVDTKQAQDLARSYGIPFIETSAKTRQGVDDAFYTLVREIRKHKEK
T5 sequence (P01116 1-169 isoform P01116-2 G12V): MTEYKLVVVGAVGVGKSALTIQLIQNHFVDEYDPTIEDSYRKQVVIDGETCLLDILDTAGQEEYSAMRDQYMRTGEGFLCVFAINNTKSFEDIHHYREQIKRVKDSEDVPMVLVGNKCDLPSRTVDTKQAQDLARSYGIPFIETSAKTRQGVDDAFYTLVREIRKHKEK
T3 sequence (P01116 1-169 isoform P01116-2 G12R): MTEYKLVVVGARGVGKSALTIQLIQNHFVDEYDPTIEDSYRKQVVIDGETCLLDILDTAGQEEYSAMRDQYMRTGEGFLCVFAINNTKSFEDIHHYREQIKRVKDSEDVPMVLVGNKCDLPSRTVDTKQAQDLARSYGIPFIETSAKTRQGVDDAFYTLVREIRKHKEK
KRas^G13D, sequence (P01116 1-169 isoform P01116-2 G13D): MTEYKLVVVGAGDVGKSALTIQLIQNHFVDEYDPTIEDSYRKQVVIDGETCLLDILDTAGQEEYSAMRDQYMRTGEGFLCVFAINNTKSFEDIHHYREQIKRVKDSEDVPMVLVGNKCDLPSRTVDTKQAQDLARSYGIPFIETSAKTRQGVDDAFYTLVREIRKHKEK
T2 sequence (P01116 1-169 isoform P01116-2 G12D): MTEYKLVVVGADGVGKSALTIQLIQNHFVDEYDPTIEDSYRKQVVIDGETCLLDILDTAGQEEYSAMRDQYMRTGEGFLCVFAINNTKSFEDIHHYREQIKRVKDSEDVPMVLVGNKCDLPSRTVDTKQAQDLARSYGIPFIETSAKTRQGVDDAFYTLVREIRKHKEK
T4 sequence (P01116 1-169 isoform P01116-2): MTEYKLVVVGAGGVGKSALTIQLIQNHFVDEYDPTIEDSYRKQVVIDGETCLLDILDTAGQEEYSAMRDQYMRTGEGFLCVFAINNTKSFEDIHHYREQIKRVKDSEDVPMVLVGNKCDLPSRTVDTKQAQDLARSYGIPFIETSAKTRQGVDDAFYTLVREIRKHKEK
KRas^G12C, sequence (P01116 1-169 isoform P01116-2 G12C): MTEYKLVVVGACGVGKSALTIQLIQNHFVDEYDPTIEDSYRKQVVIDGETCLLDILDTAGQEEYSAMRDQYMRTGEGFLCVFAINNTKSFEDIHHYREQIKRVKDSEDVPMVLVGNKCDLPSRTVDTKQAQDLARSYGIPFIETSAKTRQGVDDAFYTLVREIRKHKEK

Row | IC50 [1] [nM] | IC50 [2] [nM] | IC50 [3] [nM] | IC50 [4] [nM] | IC50 [5] [nM] | IC50 [6] [nM] | IC50 [7] [nM] | IC50 [8] [nM] | IC50 [9] [nM] | Structure (SMILES)
1 | 1070 | 1350 | 2120 | 774 | 1360 | 1480 | 1410 | 1260 | 1200 | CCc1cccc2cccc(N3CCc4c(nc(OCC56CCCN5CCC6)nc4N4CCCC(C(C)O)C4)C3)c12 (stereo not drawn) [Example 131, 1-(1-(7-(8-ethylnaphthalen-1-yl)-2-((tetrahydro-1H-pyrrolizin-7a(5H)-yl)methoxy)-5,6,7,8-tetrahydropyrido[3,4-d]pyrimidin-4-yl)piperidin-3-yl)ethan-1-ol]
2 | 417 | 486 | 602 | 546 | 544 | 513 | 411 | 404 | 440 | CCc1cccc2cccc(N3CCc4c(nc(OCC56CCCN5CCC6)nc4N4C[C@@H](C)C[C@@H](O)C4)C3)c12 [Example 111, (3R,5S)-1-(7-(8-ethylnaphthalen-1-yl)-2-((tetrahydro-1H-pyrrolizin-7a(5H)-yl)methoxy)-5,6,7,8-tetrahydropyrido[3,4-d]pyrimidin-4-yl)-5-methylpiperidin-3-ol]
3 | 457 | 385 | 607 | 461 | 566 | 600 | 469 | 368 | 382 | CCc1cccc2cccc(N3CCc4c(nc(OCC56CCCN5CCC6)nc4N4CC(C)CC(C(N)=O)C4)C3)c12 (stereo not drawn) [Example 105, 1-(7-(8-ethylnaphthalen-1-yl)-2-((tetrahydro-1H-pyrrolizin-7a(5H)-yl)methoxy)-5,6,7,8-tetrahydropyrido[3,4-d]pyrimidin-4-yl)-5-methylpiperidine-3-carboxamide]
4 | 662 | 584 | 1230 | 723 | 1150 | 1420 | 2220 | 348 | 1270 | CCc1cccc2cccc(N3CCc4c(nc(OCC56CCCN5CCC6)nc4N4CC5CNC(=O)C5C4)C3)c12 (stereo not drawn) [Example 52, 5-(7-(8-ethylnaphthalen-1-yl)-2-((hexahydro-1H-pyrrolizin-7a-yl)methoxy)-5,6,7,8-tetrahydropyrido[3,4-d]pyrimidin-4-yl)hexahydropyrrolo[3,4-c]pyrrol-1(2H)-one]
5 | 639 | 551 | 726 | 788 | 412 | 491 | 400 | 566 | 595 | CCc1cccc2cccc(N3CCc4c(nc(OCC56CCCN5CCC6)nc4N4CCCC(O)(C(F)(F)F)C4)C3)c12 (stereo not drawn) [Example 110, 1-(7-(8-ethylnaphthalen-1-yl)-2-((tetrahydro-1H-pyrrolizin-7a(5H)-yl)methoxy)-5,6,7,8-tetrahydropyrido[3,4-d]pyrimidin-4-yl)-3-(trifluoromethyl)piperidin-3-ol]
6 | 558 | 520 | 1160 | 499 | 336 | 400 | 321 | 567 | 484 | CCc1cccc2cccc(N3CCc4c(nc(OCC56CCCN5CCC6)nc4N4C[C@@H](C)C[C@H](O)C4)C3)c12 [Example 97, (3S,5S)-1-(7-(8-ethylnaphthalen-1-yl)-2-((tetrahydro-1H-pyrrolizin-7a(5H)-yl)methoxy)-5,6,7,8-tetrahydropyrido[3,4-d]pyrimidin-4-yl)-5-methylpiperidin-3-ol]
7 | 72 | 89 | 68 | 123 | 101 | 95 | 105 | 71 | 93 | CCc1cccc2cccc(N3CCc4c(nc(OCC56CCCN5CCC6)nc4N4CCOCC(C)(O)C4)C3)c12 (stereo not drawn) [Example 22, 4-(7-(8-ethylnaphthalen-1-yl)-2-((hexahydro-1H-pyrrolizin-7a-yl)methoxy)-5,6,7,8-tetrahydropyrido[3,4-d]pyrimidin-4-yl)-6-methyl-1,4-oxazepan-6-ol]

Further lines, the compound ahead of its results:

Row | Structure (SMILES) | IC50 [1] [nM] | IC50 [2] [nM] | IC50 [3] [nM] | IC50 [4] [nM] | IC50 [5] [nM] | IC50 [6] [nM] | IC50 [7] [nM] | IC50 [8] [nM] | IC50 [9] [nM]
8 | CCc1cccc2cccc(N3CCc4c(nc(OCC56CCCN5CCC6)nc4NC4CC(=O)N(c5cnn(C)c5)C4)C3)c12 (stereo not drawn) [Example 126, 4-((7-(8-ethylnaphthalen-1-yl)-2-((tetrahydro-1H-pyrrolizin-7a(5H)-yl)methoxy)-5,6,7,8-tetrahydropyrido[3,4-d]pyrimidin-4-yl)amino)-1-(1-methyl-1H-pyrazol-4-yl)pyrrolidin-2-one] | 2740 | 2910 | 720 | 3290 | 5680 | 5450 | 4260 | 2750 | 5900
9 | CCc1cccc2cccc(N3CCc4c(nc(OCC56CCCN5CCC6)nc4N4CCCc5ncccc5C4)C3)c12 [Example 55, 6-(7-(8-ethylnaphthalen-1-yl)-2-((hexahydro-1H-pyrrolizin-7a-yl)methoxy)-5,6,7,8-tetrahydropyrido[3,4-d]pyrimidin-4-yl)-6,7,8,9-tetrahydro-5H-pyrido[3,2-c]azepine] | 893 | 1160 | 1160 | 744 | 3860 | 4550 | 2900 | 1100 | 2080
10 | Cc1cccc2cccc(N3CCc4c(nc(OCC56CCCN5CCC6)nc4N4CC5C(=O)NC(=O)C5C4)C3)c12 (stereo not drawn) [Example 80, 5-(2-((hexahydro-1H-pyrrolizin-7a-yl)methoxy)-7-(8-methylnaphthalen-1-yl)-5,6,7,8-tetrahydropyrido[3,4-d]pyrimidin-4-yl)tetrahydropyrrolo[3,4-c]pyrrole-1,3(2H,3aH)-dione] | 211 | 68 | 121 | 285 | 213 | 260 | 200 | 130 | 428
11 | CCc1cccc2cccc(N3CCc4c(nc(OCC56CCCN5CCC6)nc4NC4CCc5ncsc5C4)C3)c12 (stereo not drawn) [Example 168, N-(7-(8-ethylnaphthalen-1-yl)-2-((tetrahydro-1H-pyrrolizin-7a(5H)-yl)methoxy)-5,6,7,8-tetrahydropyrido[3,4-d]pyrimidin-4-yl)-4,5,6,7-tetrahydrobenzo[d]thiazol-6-amine] | 5390 | 9630 | 26400 | 4950 | 21900 | 14600 | 15000 | 7120 | 11100
12 | CCc1cccc2cccc(N3CCc4c(nc(OCC56CCCN5CCC6)nc4N4CCC(c5[nH]ncc5N)C4)C3)c12 (stereo not drawn) [Example 46, 5-(1-(7-(8-ethylnaphthalen-1-yl)-2-((hexahydro-1H-pyrrolizin-7a-yl)methoxy)-5,6,7,8-tetrahydropyrido[3,4-d]pyrimidin-4-yl)pyrrolidin-3-yl)-1H-pyrazol-4-amine] | 401 | 611 | 6750 | 277 | 2860 | 2230 | 1820 | 232 | 448
13 | CCc1cccc2cccc(N3CCc4c(nc(OCC56CCCN5CCC6)nc4NCCNS(N)(=O)=O)C3)c12 [Example 160, N-(2-((7-(8-ethylnaphthalen-1-yl)-2-((tetrahydro-1H-pyrrolizin-7a(5H)-yl)methoxy)-5,6,7,8-tetrahydropyrido[3,4-d]pyrimidin-4-yl)amino)ethyl)sulfamide] | 4240 | 6740 | 4440 | 7650 | 10000 | 11000 | 8740 | 2560 | 9260
14 | CCc1cccc2cccc(N3CCc4c(nc(OCC56CCCN5CCC6)nc4N4CCCC(N5CCCC5=O)C4)C3)c12 (stereo not drawn) [Example 137, 1-(1-(7-(8-ethylnaphthalen-1-yl)-2-((tetrahydro-1H-pyrrolizin-7a(5H)-yl)methoxy)-5,6,7,8-tetrahydropyrido[3,4-d]pyrimidin-4-yl)piperidin-3-yl)pyrrolidin-2-one] | 1030 | 1080 | 3240 | 1140 | 1350 | 1470 | 1660 | 1470 | 948
15 | CCc1cccc2cccc(N3CCc4c(nc(OCC56CCCN5CCC6)nc4NCc4nnc(CSC)[nH]4)C3)c12 [Example 161, 7-(8-ethylnaphthalen-1-yl)-N-((5-((methylthio)methyl)-4H-1,2,4-triazol-3-yl)methyl)-2-((tetrahydro-1H-pyrrolizin-7a(5H)-yl)methoxy)-5,6,7,8-tetrahydropyrido[3,4-d]pyrimidin-4-amine] | 6790 | 15000 | 7690 | 14600 | 25200 | 21300 | 27400 | 2740 | 21700
16 | CCc1cccc2cccc(N3CCc4c(nc(OCC56CCCN5CCC6)nc4NCCNc4ncccc4C#N)C3)c12 [Example 154, 2-((2-((7-(8-ethylnaphthalen-1-yl)-2-((tetrahydro-1H-pyrrolizin-7a(5H)-yl)methoxy)-5,6,7,8-tetrahydropyrido[3,4-d]pyrimidin-4-yl)amino)ethyl)amino)nicotinonitrile] | 1790 | 7120 | 35700 | 2370 | 8230 | 6910 | 6790 | 3070 | 4040
